Data taken from patent US20240391931A1 (Bristol-Myers Squibb Company, priority 2021, published 2024).
pIC50: −log10 of the molar value.

Assays:
[1] = molecular target: T1, EGFR WT (Homo sapiens, UniProt P00533); assay: Enzymatic assay EGFR WT (method c); type: biochemical; settings: [EGFR WT]=2 nM, [ATP]=1 mM, [Peptide 22]=1 μM
T1 construct: purchased Thermo Fisher, Carlsbad, CA ERBB1 PR7295B
How it was run: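 Microfluidic mobility-shift kinase assay with Peptide 22 (1 μM) in HEPES pH 7.5, MnCl2, MgCl2, Tween 20, TCEP. HER2 WT 12.5 nM and HER2 YVMA 5 nM each used 25 μM ATP; EGFR WT 2 nM used 1 mM ATP. IC50 came from initial-velocity (0–3600 s) percent inhibition, fitted to a variable-slope model.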

[2] = system: N87 cells; assay: Cellular proliferation in N87 cells (CellTiter Glo); type: cell-based, human; settings: 72 h
Experimental: In addition to the engineered cell lines, the following cell lines were used: BT474 (human breast carcinoma), N87 (human gastric carcinoma), NCI-H1781 (human lung adenocarcinoma), and A431 (human epidermoid carcinoma); all cell lines were obtained from the American Type Culture Collection (ATCC, Manassas, VA). NCI-H1781 were grown in complete RPMI 1640 (Life Technologies, Carlsbad, CA) supplemented with 15% fetal bovine serum (FBS, Life Technologies, Carlsbad, CA) and 1% Penicillin-Streptomycin (P/S, Life Technologies, Carlsbad, CA). N87 cells were grown in complete RPMI 1640 supplemented with 10% FBS and 1% P/S. BT474 and A431 cells were grown in DMEM (Life Technologies, Carlsbad, CA) supplemented with 10% FBS and 1% P/S. All cells were maintained and propagated in a humidified 5% CO2 incubator at 37° C.
Cell proliferation in adherent cells was investigated in two HER2 amplified cell lines (BT474, N87), and a HER2VC expressing cell line (NCI-H1781). BT474, NCI-H1781, and N87 were plated in their appropriate growth media supplemented with either 10% FBS (BT474, N87) or 15% FBS (NCI-H1781) and 1% P/S in 96-well white clear-bottom tissue culture plates (Costar, Sigma-Aldrich). The starting cell densities were 3500, 5500, and 5000 cells for BT474, NCI-H1781, and N87 cells, respectively. An 8-point standard curve with varying cell densities (starting at 50000 cells and serially diluting down 2-fold) was prepared for each cell line and read 6 h after plating. Cells were allowed to attach overnight prior to compound treatment. Compound solutions were prepared by serially diluting test compounds in DMSO (Sigma-Aldrich), then diluting 500× in their corresponding serum free media. Cells were treated by adding a 1:1 volume of test compound to a final concentration of […], 0.004, 0.0014, or 0.0005 μM, in 0.1% DMSO and 5% FBS (for BT474 and N87) or 7.5% FBS (NCI-H1781). In BT474 and NCI-H1781, cell media was replaced and cells were redosed with fresh test compound solutions after 72 h. Viability was determined by CellTiter Glo (Promega, Madison, WI) after 72 h for N87 cells, and after 120 h for BT474 and […] cells. The results were converted to cell numbers using a standard curve; growth inhibition (GI50 values) were determined by Graph Pad Prism. […] The results are provided in Table 4, under columns titled “BT474-GI50”, “N87-GI50”, and “NCI-H1781-GI50”.

T1 sequence (P00533 25-1210): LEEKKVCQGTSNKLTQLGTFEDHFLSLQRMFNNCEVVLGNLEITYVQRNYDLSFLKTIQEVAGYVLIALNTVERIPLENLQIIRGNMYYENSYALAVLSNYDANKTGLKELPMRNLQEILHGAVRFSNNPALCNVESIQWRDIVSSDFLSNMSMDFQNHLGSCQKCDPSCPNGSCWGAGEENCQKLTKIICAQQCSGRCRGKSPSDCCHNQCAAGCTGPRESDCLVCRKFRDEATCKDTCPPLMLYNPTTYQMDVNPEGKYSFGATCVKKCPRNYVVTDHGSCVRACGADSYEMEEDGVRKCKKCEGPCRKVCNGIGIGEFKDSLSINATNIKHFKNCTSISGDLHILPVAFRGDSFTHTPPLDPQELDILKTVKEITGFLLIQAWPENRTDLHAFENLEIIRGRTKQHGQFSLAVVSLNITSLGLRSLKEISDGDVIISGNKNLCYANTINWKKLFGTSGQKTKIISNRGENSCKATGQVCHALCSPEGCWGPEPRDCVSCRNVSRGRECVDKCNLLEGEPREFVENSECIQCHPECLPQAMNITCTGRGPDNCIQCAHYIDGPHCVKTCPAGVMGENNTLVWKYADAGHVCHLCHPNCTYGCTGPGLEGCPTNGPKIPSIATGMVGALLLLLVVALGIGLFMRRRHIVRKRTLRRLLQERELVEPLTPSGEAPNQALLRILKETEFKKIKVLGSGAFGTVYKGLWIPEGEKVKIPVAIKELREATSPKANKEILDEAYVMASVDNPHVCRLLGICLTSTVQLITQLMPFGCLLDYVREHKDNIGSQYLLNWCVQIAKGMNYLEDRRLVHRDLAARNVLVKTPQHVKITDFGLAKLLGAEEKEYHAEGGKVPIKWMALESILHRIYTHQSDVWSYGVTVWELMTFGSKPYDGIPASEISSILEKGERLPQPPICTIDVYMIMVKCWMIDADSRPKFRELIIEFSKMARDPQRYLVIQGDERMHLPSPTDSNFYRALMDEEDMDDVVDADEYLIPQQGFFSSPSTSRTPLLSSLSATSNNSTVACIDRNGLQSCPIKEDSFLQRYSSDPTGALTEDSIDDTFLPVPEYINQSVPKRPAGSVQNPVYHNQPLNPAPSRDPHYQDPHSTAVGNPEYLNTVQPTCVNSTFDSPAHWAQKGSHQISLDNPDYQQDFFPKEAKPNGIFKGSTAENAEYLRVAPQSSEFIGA

Row | pIC50 [1] | Compound | GI50 ([2]; Homo sapiens) | GI50 [2]
1 | < 5.00 | Cc1ccc(Oc2ccc(Nc3ncnc4sc5c(c34)C(C)CN(C(=O)C=CCN(C)C)C5)cc2C)cn1 (single isomer, unassigned) [Compound 105] | < 0.1 µM | –
2 | < 5.00 | Cc1ccc(Oc2ccc(Nc3ncnc4sc5c(c34)C(C)CN(C(=O)C=CCN(C)C)C5)cc2C)cn1 (single isomer, unassigned) [Compound 106] | – | < 0.1 µM
3 | < 5.00 | Cc1ccc(Oc2ccc(Nc3ncnc4sc5c(c34)CCN(C(=O)/C=C/CN(C)C)CC5)cc2C)cn1 [Compound 100, (E)-4-(dimethylamino)-1-(4-((3-methyl-4-((6-methylpyridin-3-yl)oxy)phenyl)amino)-8,9-dihydro-5H-pyrimido[5′,4′:4,5]thieno[2,3-d]azepin-7(6H)-yl)but-2-en-1-one] | < 0.1 µM | –
4 | < 5.00 | Cc1ccc(Oc2ccc(Nc3ncnc4sc5c(c34)CN(C(=O)/C=C/CN(C)C)C5)cc2C)cn1 [Compound 99, (E)-4-(dimethylamino)-1-(4-((3-methyl-4-((6-methylpyridin-3-yl)oxy)phenyl)amino)-5,7-dihydro-6H-pyrrolo[3′,4′:4,5]thieno[2,3-d]pyrimidin-6-yl)but-2-en-1-one] | < 0.1 µM | –
5 | < 5.00 | Cc1ccc(Oc2ccc(Nc3ncnc4sc5c(c34)CCN(C(=O)/C=C/CN3CC4C(CO)C4C3)C5)cc2C)cn1 (stereo not shown) [Compound 34] | < 0.1 µM | –
6 | < 5.00 | Cc1ccc(Oc2ccc(Nc3ncnc4sc5c(c34)CCN(C(=O)/C=C/CN[C@H]3CC[C@H](OC4CC4)CC3)C5)cc2C)cn1 [Compound 68] | – | –
7 | 5.00 to 6.00 | Cc1cc(Nc2ncnc3sc4c(c23)CCN(C(=O)/C=C/CN(C)C)C4)ccc1Oc1ccc2[nH]ncc2c1 [Compound 22, (E)-1-(4-((4-((1H-indazol-5-yl)oxy)-3-methylphenyl)amino)-5,8-dihydropyrido[4′,3′:4,5]thieno[2,3-d]pyrimidin-7(6H)-yl)-4-(dimethylamino)but-2-en-1-one] | – | –
8 | < 5.00 | Cc1ccc(Oc2ccc(Nc3ncnc4sc5c(c34)CCN(C(=O)/C=C/CN3CC(O)C3)C5)cc2C)cn1 [Compound 53] | – | –
9 | 5.00 to 6.00 | Cc1ccc(Oc2ccc(Nc3ncnc4sc5c(c34)CCN(C(=O)/C=C/CNCc3ccsc3)C5)cc2C)cn1 [Compound 52] | – | –
10 | < 5.00 | Cc1cc(Nc2ncnc3sc4c(c23)CCN(C(=O)/C=C/CN2CC(C)OC(C)C2C)C4)ccc1Oc1ccc2ncnn2c1 (stereo not shown) [Compound 83] | – | –
11 | < 5.00 | CN(C)C/C=C/C(=O)N1CCc2c(sc3ncnc(Nc4ccc(Oc5ccc6ncnn6c5)c(Cl)c4)c23)C1 [Compound 5, (E)-1-(4-((4-([1,2,4]triazolo[1,5-a]pyridin-6-yloxy)-3-chlorophenyl)amino)-5,8-dihydropyrido[4′,3′:4,5]thieno[2,3-d]pyrimidin-7(6H)-yl)-4-(dimethylamino)but-2-en-1-one] | – | –
12 | 5.00 to 6.00 | Cc1ccc(Oc2ccc(Nc3ncnc4sc5c(c34)CCN(C(=O)/C=C/CN(CCO)CCO)C5)cc2C)cn1 [Compound 37] | – | –
13 | < 5.00 | CCN1CCN(C/C=C/C(=O)N2CCc3c(sc4ncnc(Nc5ccc(Oc6ccc(C)nc6)c(C)c5)c34)C2)CC1 [Compound 46] | – | –
14 | 5.00 to 6.00 | Cc1ccc(Oc2ccc(Nc3ncnc4sc5c(c34)CCN(C(=O)/C=C/CN[C@H]3CCC[C@H](O)C3)C5)cc2C)cn1 [Compound 73] | – | –
15 | < 5.00 | Cc1ccc(Oc2ccc(Nc3ncnc4sc5c(c34)C(C)CN(C(=O)/C=C/CN(C)C)C5)cc2C)cn1 (stereo not shown) [Compound 98, (E)-4-(dimethylamino)-1-(5-methyl-4-((3-methyl-4-((6-methylpyridin-3-yl)oxy)phenyl)amino)-5,8-dihydropyrido[4′,3′:4,5]thieno[2,3-d]pyrimidin-7(6H)-yl)but-2-en-1-one] | < 0.1 µM | –
16 | < 5.00 | Cc1ccc(Oc2ccc(Nc3ncnc4sc5c(c34)CCN(C(=O)/C=C/CN(C)C(C)(C)C)C5)cc2C)cn1 [Compound 33] | < 0.1 µM | –
17 | < 5.00 | COc1ccc(Oc2ccc(Nc3ncnc4sc5c(c34)CCN(C(=O)/C=C/CN(C)C)C5)cc2C)cn1 [Compound 95, (E)-4-(Dimethylamino)-1-(4-((4-((6-methoxypyridin-3-yl)oxy)-3-methylphenyl)amino)-5,6-dihydropyrido[4′,3′:4,5]thieno[2,3-d]pyrimidin-7(8H)-yl)but-2-en-1-one] | < 0.1 µM | –
18 | 5.00 to 6.00 | Cc1cc(Nc2ncnc3sc4c(c23)CCN(C(=O)/C=C/CN(C)C)C4)ccc1Oc1ccc2ncnn2c1 [Compound 3, (E)-1-(4-((4-([1,2,4]triazolo[1,5-a]pyridin-6-yloxy)-3-methylphenyl)amino)-5,8-dihydropyrido[4′,3′:4,5]thieno[2,3-d]pyrimidin-7(6H)-yl)-4-(dimethylamino)but-2-en-1-one] | – | –
19 | < 5.00 | Cc1ccc(Oc2ccc(Nc3ncnc4sc5c(c34)CCN(C(=O)/C=C/CNCC3CN(C)CCO3)C5)cc2C)cn1 (stereo not shown) [Compound 48] | – | –
20 | < 5.00 | Cc1ccc(Oc2ccc(Nc3ncnc4sc5c(c34)CCN(C(=O)/C=C/CN3CCCOCC3)C5)cc2C)cn1 [Compound 42] | < 0.1 µM | –
21 | < 5.00 | CN(C/C=C/C(=O)N1CCc2c(sc3ncnc(Nc4ccc(Oc5ccc6ncnn6c5)c(Cl)c4)c23)C1)C(C)(C)C [Compound 91] | – | –
22 | < 5.00 | Cc1cc(Nc2ncnc3sc4c(c23)CCN(C(=O)/C=C/CN2CC(C)(C)OC(C)(C)C2)C4)ccc1Oc1ccc2ncnn2c1 [Compound 84] | – | –
23 | < 5.00 | Cc1ccc(Oc2ccc(Nc3ncnc4sc5c(c34)CCN(C(=O)/C=C/CN3C[C@H]4CC[C@@H](C3)O4)C5)cc2C)cn1 [Compound 66] | – | –
24 | < 5.00 | CNC(=O)CNC/C=C/C(=O)N1CCc2c(sc3ncnc(Nc4ccc(Oc5ccc(C)nc5)c(C)c4)c23)C1 [Compound 39] | – | –
25 | < 5.00 | Cc1ccc(Oc2ccc(Nc3ncnc4sc5c(c34)CCN(C(=O)/C=C/CN3CCC4(CCOC4)C3)C5)cc2C)cn1 (stereo not shown) [Compound 67] | – | –
